Here are results for four compounds from ChEMBL document CHEMBL1201862, “PubChem BioAssay data set” (2004).

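In this assay, cells in 96-well plates receive the compound at five concentrations for 48 hours. Endpoints are linearly interpolated between the surrounding concentrations. Here, GI50 denotes the concentration required for 50% inhibition of growth.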 Active and inactive are the calls of the source. Rule as the data show it: active = GI50 up to about 1.1 µM and inactive = higher. Where only a bound is given, the exact number is not on record here.

Among the test systems are 786-0; HT-29; HOP-62; A498; HCT-15; U-251; NCI-H460; OVCAR-8; UACC-257; MDA-MB-435; A549; NCI-H522; HCT-116; SK-MEL-28; IGROV-1; MDA-N; KM12; SF-539.
Common to all, as to experiment: inhibition of tumour cell growth, NCI panel, 48 h

Consider `Clc1cccc(C2ON=C(c3ccccc3)N2C23CC4CC(CC(C4)C2)C3)c1Cl` (stereo unspecified), for which the GI50 with 786-0 is > 10 µM (inactive); in the assay with HT-29 it was > 10 µM (inactive); in the assay with HOP-62, > 10 µM (inactive); in the assay with A498 it was > 10 µM (inactive); in the assay with HCT-15, above 10 µM; in the assay with U-251, > 10 µM (inactive). In addition, the GI50 with NCI-H460, in the assay on OVCAR-8, with UACC-257, in the assay with MDA-MB-435, with A549 and in the assay with NCI-H522 was > 10 µM (inactive) throughout. Besides, the GI50 in the assay with HCT-116, in the assay with SK-MEL-28, with IGROV-1, in the assay with MDA-N, with KM12 and in the assay with SF-539 was > 10 µM (inactive) in each case.

`O=[N+]([O-])C(C(Cl)=C(Cl)Cl)=C(N1CCOCC1)N1CCOCC1`: the GI50 with 786-0 was > 100 µM (inactive); with HT-29, > 100 µM (inactive); in the assay on HOP-62, > 100 µM (inactive); with A498, > 100 µM (inactive); with HCT-15 it was above 100 µM; with U-251, > 100 µM (inactive). Further, the GI50 in the assay on OVCAR-8, in the assay on UACC-257, in the assay on MDA-MB-435, in the assay with A549, in the assay on NCI-H522 and with HCT-116 was > 100 µM (inactive) in each case. Moreover, the GI50 with SK-MEL-28, with IGROV-1, with MDA-N, with KM12 and in the assay with SF-539 was > 100 µM (inactive) throughout.

In the case of `O=[N+]([O-])c1cc(Cl)ccc1Sc1ccccc1`, the GI50 in the assay on 786-0 was > 100 µM (inactive); in the assay with HT-29, 46.8 µM (inactive); in the assay on HOP-62, > 100 µM (inactive); in the assay on A498, > 100 µM (inactive); with HCT-15, 72.3 µM; with U-251, 5.89 µM (inactive). For the same compound, the GI50 in the assay on NCI-H460 is 75 µM (inactive); in the assay on OVCAR-8, > 100 µM (inactive); in the assay on UACC-257 it was > 100 µM (inactive); with MDA-MB-435, > 100 µM (inactive); with A549, > 100 µM (inactive); in the assay with NCI-H522, > 100 µM (inactive). For the same compound, the GI50 in the assay with HCT-116 is 34.3 µM (inactive); with SK-MEL-28 it was > 100 µM (inactive); with IGROV-1 it was > 100 µM (inactive); in the assay with MDA-N, 98.4 µM (inactive); with KM12, 98.6 µM (inactive); with SF-539, > 100 µM (inactive).

With `Cc1cc(S(=O)(=O)Nc2nc(N)n(C)n2)c(S)cc1Cl`, the GI50 in the assay on 786-0 was > 10 µM (inactive); in the assay with HT-29 it was > 10 µM (inactive); in the assay with HOP-62, > 10 µM (inactive); in the assay on A498, > 10 µM (inactive); in the assay with HCT-15, above 10 µM; in the assay with U-251, > 10 µM (inactive). Moreover, the GI50 in the assay with NCI-H460, in the assay on OVCAR-8, in the assay on UACC-257, in the assay with MDA-MB-435, in the assay with A549 and in the assay with NCI-H522 was > 10 µM (inactive) throughout. Moreover, the GI50 with HCT-116, in the assay with SK-MEL-28, in the assay with IGROV-1, in the assay on MDA-N, in the assay on KM12 and with SF-539 was > 10 µM (inactive) each time.
